# According to patent US7138361B2, “Herbicidal heterocycles” (E. I. du Pont de Nemours and Company, priority 2000, dated 2006):
# Legend:
# Type in all cases: in vivo
# [1] = tested on: Sunflower; assay: Test C preemergence; conditions: scale 0 to 100, 0 no effect, 100 complete control
# [2] = tested on: Nightshade; assay: Test C preemergence; conditions: Rate 500 g/ha, visual evaluation after 12 to 14 days
# [3] = tested on: corn (Zea mays); assay: Test B preemergence
# In short: (§1)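 Ratings on a 0 to 100 visual scale (100 complete control) compare treated plants with controls 13 to 15 days after application. Treatments were pre- or postemergence sprays of compound in non-phytotoxic solvent with surfactant.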
# [4] = tested on: giant foxtail (Setaria faberii); assay: Test B preemergence
# In short: as §1
# [5] = tested on: rice (Oryza saliva); assay: Test B preemergence
# In short: as §1
# [6] = tested on: morning glory (Ipomoea hederacea); assay: Test B preemergence
# In short: as §1
# [7] = tested on: Surinam grass (Brachiaria decumbens); assay: Test B preemergence
# In short: as §1
# [8] = tested on: lambsquarters (Chenopodium album); assay: Test B preemergence
# In short: as §1
# [9] = tested on: barnyardgrass (Echinochloa crus-galli); assay: Test B preemergence
# In short: as §1
# [10] = tested on: cocklebur (Xanthium strumarium); assay: Test B preemergence
# In short: as §1
# [11] = tested on: pigweed (Amaranthus retroflexus); assay: Test B preemergence
# In short: as §1
# [12] = tested on: crabgrass (Digitaria sanguinalis); assay: Test B preemergence
# In short: as §1
# [13] = tested on: velvetleaf (Abutilon theophrasti); assay: Test B preemergence
# In short: as §1
# [14] = tested on: corn (Zea mays); assay: Test B postemergence; conditions: 13 to 15 days
# In short: as §1
# [15] = tested on: giant foxtail (Setaria faberii); assay: Test B postemergence; conditions: 13 to 15 days
# In short: as §1
# [16] = tested on: blackgrass (Alopecurus myosuroides); assay: Test B postemergence; conditions: 13 to 15 days
# In short: as §1
# [17] = tested on: morning glory (Ipomoea hederacea); assay: Test B postemergence; conditions: 13 to 15 days
# In short: as §1
# [18] = tested on: Surinam grass (Brachiaria decumbens); assay: Test B postemergence; conditions: 13 to 15 days
# In short: as §1
# [19] = tested on: lambsquarters (Chenopodium album); assay: Test B postemergence; conditions: 13 to 15 days
# In short: as §1
# [20] = tested on: barnyardgrass (Echinochloa crus-galli); assay: Test B postemergence; conditions: 13 to 15 days
# In short: as §1
# [21] = tested on: wild oat (Avena fatua); assay: Test B postemergence; conditions: 13 to 15 days
# In short: as §1
# [22] = tested on: cocklebur (Xanthium strumarium); assay: Test B postemergence; conditions: 13 to 15 days
# In short: as §1
# [23] = tested on: pigweed (Amaranthus retroflexus); assay: Test B postemergence; conditions: 13 to 15 days
# In short: as §1
# [24] = tested on: wheat (Triticum aestivum); assay: Test B postemergence; conditions: 13 to 15 days
# In short: as §1
# [25] = tested on: crabgrass (Digitaria sanguinalis); assay: Test B postemergence; conditions: 13 to 15 days
# In short: as §1
# [26] = tested on: velvetleaf (Abutilon theophrasti); assay: Test B postemergence; conditions: 13 to 15 days
# In short: as §1
# [27] = Preemergence, Rate 500 g/ha, scale 0 to 100, 0 no effect, 100 complete control
# [28] = preemergence, Rate 125 g/ha, scale of 0 to 100 where 0 is no effect and 100 is complete control, 13 to 15 days
# [29] = Rate 125 g/ha, scale 0 (no effect) to 100 (complete control)
# [30] = Rate 500 g/ha, scale 0 to 100, 0 is no effect, 100 is complete control
compound,measurement,setting,value
CC1(c2ccn(C3SCN(c4cccc(OC(F)(F)F)c4)C3=O)n2)CC1 (stereo not drawn) [Compound 63],"Plant response rating, Sunflower",[1]; Rate 125 g/ha,0
same,"Plant response rating, Sunflower",[1]; Rate 250 g/ha,40
same,"Plant response rating (0 to 100), Nightshade",[2],100
same,"Plant response rating, Corn",[3]; [27],0
same,"Plant response rating, Corn",[3]; [28],0
same,"Plant response rating, Foxtail, Giant",[4]; [27],90
same,"Plant response rating, Foxtail, Giant",[4]; [28],50
same,"Plant response rating, Rice",[5]; [27],0
same,"Plant response rating, Rice",[5]; [28],0
same,"Plant response rating, Morningglory",[6]; [27],0
same,"Plant response rating, Morningglory",[6]; [28],0
same,"Plant response rating, Surinam grass",[7]; [27],30
same,"Plant response rating, Surinam grass",[7]; [28],0
same,"Plant response rating, Lambsquarters",[8]; [27],100
same,"Plant response rating, Lambsquarters",[8]; [28],100
same,"Plant response rating, Barnyardgrass",[9]; [27],90
same,"Plant response rating, Barnyardgrass",[9]; [28],50
same,"Plant response rating, Cocklebur",[10]; [27],0
same,"Plant response rating, Cocklebur",[10]; [28],0
same,"Plant response rating, Pigweed",[11]; [27],100
same,"Plant response rating, Pigweed",[11]; [28],100
same,"Plant response rating, Crabgrass",[12]; [27],100
same,"Plant response rating, Crabgrass",[12]; [28],0
same,"Plant response rating, Velvetleaf",[13]; [27],0
same,"Plant response rating, Velvetleaf",[13]; [28],0
same,"Plant response rating, Corn",[14]; [29],0
same,"Plant response rating, Corn",[14]; [30],0
same,"Plant response rating, Foxtail, Giant",[15]; [29],0
same,"Plant response rating, Foxtail, Giant",[15]; [30],50
same,"Plant response rating, Blackgrass",[16]; [29],0
same,"Plant response rating, Blackgrass",[16]; [30],0
same,"Plant response rating, Morningglory",[17]; [29],0
same,"Plant response rating, Morningglory",[17]; [30],40
same,"Plant response rating, Surinam grass",[18]; [29],0
same,"Plant response rating, Surinam grass",[18]; [30],0
same,"Plant response rating, Lambsquarters",[19]; [29],60
same,"Plant response rating, Lambsquarters",[19]; [30],80
same,"Plant response rating, Barnyardgrass",[20]; [29],0
same,"Plant response rating, Barnyardgrass",[20]; [30],60
same,"Plant response rating, Wild Oat",[21]; [29],0
same,"Plant response rating, Wild Oat",[21]; [30],0
same,"Plant response rating, Cocklebur",[22]; [29],0
same,"Plant response rating, Cocklebur",[22]; [30],50
same,"Plant response rating, Pigweed",[23]; [29],50
same,"Plant response rating, Pigweed",[23]; [30],70
same,"Plant response rating, Wheat",[24]; [29],0
same,"Plant response rating, Wheat",[24]; [30],0
same,"Plant response rating, Crabgrass",[25]; [29],0
same,"Plant response rating, Crabgrass",[25]; [30],60
same,"Plant response rating, Velvetleaf",[26]; [29],0
same,"Plant response rating, Velvetleaf",[26]; [30],50
CC1(c2ccn(C3SCN(c4cccc(C(F)(F)F)c4)C3=O)n2)CC1 (stereo not drawn) [Compound 64],"Plant response rating, Sunflower",[1]; Rate 125 g/ha,20
same,"Plant response rating, Sunflower",[1]; Rate 250 g/ha,50
same,"Plant response rating (0 to 100), Nightshade",[2],90
same,"Plant response rating, Corn",[3]; [27],20
same,"Plant response rating, Corn",[3]; [28],0
same,"Plant response rating, Foxtail, Giant",[4]; [27],90
same,"Plant response rating, Foxtail, Giant",[4]; [28],0
same,"Plant response rating, Rice",[5]; [27],0
same,"Plant response rating, Rice",[5]; [28],0
same,"Plant response rating, Morningglory",[6]; [27],10
same,"Plant response rating, Morningglory",[6]; [28],0
same,"Plant response rating, Surinam grass",[7]; [27],60
same,"Plant response rating, Surinam grass",[7]; [28],30
same,"Plant response rating, Lambsquarters",[8]; [27],100
same,"Plant response rating, Lambsquarters",[8]; [28],100
same,"Plant response rating, Barnyardgrass",[9]; [27],90
same,"Plant response rating, Barnyardgrass",[9]; [28],50
same,"Plant response rating, Cocklebur",[10]; [27],10
same,"Plant response rating, Cocklebur",[10]; [28],0
same,"Plant response rating, Pigweed",[11]; [27],100
same,"Plant response rating, Pigweed",[11]; [28],100
same,"Plant response rating, Crabgrass",[12]; [27],100
same,"Plant response rating, Crabgrass",[12]; [28],40
same,"Plant response rating, Velvetleaf",[13]; [27],0
same,"Plant response rating, Velvetleaf",[13]; [28],0
same,"Plant response rating, Corn",[14]; [29],0
same,"Plant response rating, Corn",[14]; [30],20
same,"Plant response rating, Foxtail, Giant",[15]; [29],0
same,"Plant response rating, Foxtail, Giant",[15]; [30],30
same,"Plant response rating, Blackgrass",[16]; [29],0
same,"Plant response rating, Blackgrass",[16]; [30],0
same,"Plant response rating, Morningglory",[17]; [29],0
same,"Plant response rating, Morningglory",[17]; [30],60
same,"Plant response rating, Surinam grass",[18]; [29],0
same,"Plant response rating, Surinam grass",[18]; [30],40
same,"Plant response rating, Lambsquarters",[19]; [29],70
same,"Plant response rating, Lambsquarters",[19]; [30],80
same,"Plant response rating, Barnyardgrass",[20]; [29],0
same,"Plant response rating, Barnyardgrass",[20]; [30],50
same,"Plant response rating, Wild Oat",[21]; [29],0
same,"Plant response rating, Wild Oat",[21]; [30],0
same,"Plant response rating, Cocklebur",[22]; [29],70
same,"Plant response rating, Cocklebur",[22]; [30],70
same,"Plant response rating, Pigweed",[23]; [29],40
same,"Plant response rating, Pigweed",[23]; [30],70
same,"Plant response rating, Wheat",[24]; [29],0
same,"Plant response rating, Wheat",[24]; [30],0
same,"Plant response rating, Crabgrass",[25]; [29],0
same,"Plant response rating, Crabgrass",[25]; [30],50
same,"Plant response rating, Velvetleaf",[26]; [29],0
same,"Plant response rating, Velvetleaf",[26]; [30],30
CCC(C)c1ccn(C2OCN(c3cccc(OC(F)(F)F)c3)C2=O)n1 (stereo not drawn) [Compound 67],"Plant response rating, Sunflower",[1]; Rate 125 g/ha,0
same,"Plant response rating, Sunflower",[1]; Rate 250 g/ha,0
same,"Plant response rating (0 to 100), Nightshade",[2],60
same,"Plant response rating, Corn",[3]; [27],20
same,"Plant response rating, Corn",[3]; [28],0
same,"Plant response rating, Foxtail, Giant",[4]; [27],40
same,"Plant response rating, Foxtail, Giant",[4]; [28],40
same,"Plant response rating, Rice",[5]; [27],40
same,"Plant response rating, Rice",[5]; [28],40
same,"Plant response rating, Morningglory",[6]; [27],0
same,"Plant response rating, Morningglory",[6]; [28],0
same,"Plant response rating, Surinam grass",[7]; [27],50
same,"Plant response rating, Surinam grass",[7]; [28],20
same,"Plant response rating, Lambsquarters",[8]; [27],100
same,"Plant response rating, Lambsquarters",[8]; [28],100
same,"Plant response rating, Barnyardgrass",[9]; [27],100
same,"Plant response rating, Barnyardgrass",[9]; [28],60
same,"Plant response rating, Cocklebur",[10]; [27],0
same,"Plant response rating, Cocklebur",[10]; [28],0
same,"Plant response rating, Pigweed",[11]; [27],100
same,"Plant response rating, Pigweed",[11]; [28],100
same,"Plant response rating, Crabgrass",[12]; [27],80
same,"Plant response rating, Crabgrass",[12]; [28],20
same,"Plant response rating, Velvetleaf",[13]; [27],0
same,"Plant response rating, Velvetleaf",[13]; [28],0
same,"Plant response rating, Corn",[14]; [29],0
same,"Plant response rating, Corn",[14]; [30],0
same,"Plant response rating, Foxtail, Giant",[15]; [29],20
same,"Plant response rating, Foxtail, Giant",[15]; [30],40
same,"Plant response rating, Blackgrass",[16]; [29],0
same,"Plant response rating, Blackgrass",[16]; [30],0
same,"Plant response rating, Morningglory",[17]; [29],0
same,"Plant response rating, Morningglory",[17]; [30],0
same,"Plant response rating, Surinam grass",[18]; [29],30
same,"Plant response rating, Surinam grass",[18]; [30],30
same,"Plant response rating, Lambsquarters",[19]; [29],90
same,"Plant response rating, Lambsquarters",[19]; [30],100
same,"Plant response rating, Barnyardgrass",[20]; [29],90
same,"Plant response rating, Barnyardgrass",[20]; [30],100
same,"Plant response rating, Wild Oat",[21]; [29],0
same,"Plant response rating, Wild Oat",[21]; [30],0
same,"Plant response rating, Cocklebur",[22]; [29],0
same,"Plant response rating, Cocklebur",[22]; [30],60
same,"Plant response rating, Pigweed",[23]; [29],0
same,"Plant response rating, Pigweed",[23]; [30],0
same,"Plant response rating, Wheat",[24]; [29],0
same,"Plant response rating, Wheat",[24]; [30],0
same,"Plant response rating, Crabgrass",[25]; [29],50
same,"Plant response rating, Crabgrass",[25]; [30],100
same,"Plant response rating, Velvetleaf",[26]; [29],0
same,"Plant response rating, Velvetleaf",[26]; [30],20
